According to patent US8716296B2 (Ingenium Pharmaceuticals GmbH, priority 2007, dated 2014):
Where a name gives a salt, the structure may show the parent alone.

What was measured:
[1] = test system: LPS induced THP-1 macrophages; assay: In vitro THP-1 assay, model of cytokine inhibition; format: cell-based, human; details: differentiated THP-1 cells, 60 min pre-incubation, LPS 4-48 h, ELISA, versus vehicle (DMSO)
Procedure: The human THP-1 cell line can be utilized as an in vitro model of cytokine expression as mediated by Lipopolysaccharide (LPS) or Tumor Necrosis Factorα [TNFα].
Monocytic THP-1 cells (ATCC; TIB-202) can be differentiated into macrophage-like cells expressing pro-inflammatory cytokines like TNFα, IL6 and IL1β upon induction with LPS or by TNFα (autocrine induction) itself.
THP-1 cells are grown in modified RPMI-1640 medium (ATCC, Cat. No. 30-2001) supplemented with 10% FCS and 1% Pen/Strep. For cytokine inhibition assays, cells are seeded at a density of 5×10^5 cells/ml into 6-well plates in standard growth medium supplemented with 100 ng/ml PMA (Sigma, P1585) to induce differentiation into macrophage-like cells. After 24 hours, the medium is replaced with standard growth medium (without PMA) and the cells are incubated for another 48 hours to complete differentiation.
After 72 h of differentiation, the medium is replaced with serum free growth medium, and CDK-inhibiting compounds as well as reference compounds such as positive and negative controls, each dissolved in DMSO are added at concentrations ranging from 0.5 to 5 μM (final concentration of DMSO in the well is 0.1%). Cells are incubated for 60 min with compounds prior to stimulation with 100 ng/ml LPS (Sigma, L2630) for another 4-48 hours. Supernatants are collected and assayed immediately for cytokine expression, e.g. for TNFα, IL-6 and IL-1b using commercially available sandwich ELISA assays (eBioscience, Cat. No 88-7346, 88-7066, 88-7010) or kept frozen at […] until evaluation.
Concentrations of TNFα, IL6 and IL1β within the cell culture supernatants are measured by using commercial ELISA Kits (eBioscience) according to the manufacturers instructions.
CDK-inhibitory compounds #1A, 16A, 20A, and 25A were administered to differentiated THP-1 cells in triplicates as described above (see section 2.). After 60 min of pre-incubation with test or reference compound (SB203580, a p38 inhibitor and BMS345541, an IKK-inhibitor) alone, cells were stimulated with LPS. After incubation for 4-48 h, supernatants were collected and ELISA based determinations of cytokine supernatant concentrations were performed as described in section 3, supra.

| SMILES | melting point | further results |
| --- | --- | --- |
| COc1ccc(F)cc1-c1cc(NC(=O)C2CCCCN2)ncn1 (centres unmarked) (as salt: TFA) [Example 37, N-(6-(5-fluoro-2-methoxyphenyl)pyrimidin-4-yl)piperidine-2-carboxamide*TFA] | 122 °C |  |
| COc1ccc(F)cc1-c1cc(NC(=O)C2CCC(N)CC2)ncn1 (centres unmarked) (as salt: TFA) [Example 38, 4-amino-N-(6-(5-fluoro-2-methoxyphenyl)pyrimidin-4-yl)cyclohexanecarboxamide*TFA] | 162 °C |  |
| COc1ccccc1-c1cc(NC(=O)[C@H]2CCCNC2)ncn1 [Compound 17A, (S)-Piperidine-3-carboxylic acid [6-(2-methoxy-phenyl)-pyrimidin-4-yl]-amide] | 163 to 165 °C |  |
| COc1ccccc1-c1cc(NC(=O)[C@@H]2CCCNC2)ncn1 [Compound 18A, (R)-Piperidine-3-carboxylic acid [6-(2-methoxy-phenyl)-pyrimidin-4-yl]-amide] | 210 to 213 °C |  |
| COc1ccccc1-c1cc(NC(=O)C2CCCNC2)nc(C)n1 (centres unmarked) [Compound 22A, piperidine-3-carboxylic acid [6-(2-methoxy-phenyl)-2-methyl-pyrimidin-4-yl]-amide] | 229 to 230 °C |  |
| COc1ccccc1-c1cc(NC(=O)C(C)(C)C)ncn1 [Compound 25A, N-[6-(2-methoxy-phenyl)-pyrimidin-4-yl]-2,2-dimethyl-propionamide] |  | IL6 protein concentration in the cell supernatant [1]: significant inhibitory effect; TNFα protein concentration in the cell supernatant [1]: significant inhibitory effect |
| COc1ccc(F)cc1-c1cc(NC(=O)C2(C(N)=O)CC2)ncn1 [Example 10, N-(6-(5-fluoro-2-methoxyphenyl)pyrimidin-4-yl)cyclopropane-1,1-dicarboxamide] | 190 °C |  |
| CCCN1N=C(C(=O)Nc2cc(-c3cc(F)ccc3OC)ncn2)CCC1=O [Example 11, N-(6-(5-fluoro-2-methoxyphenyl)pyrimidin-4-yl)-1,4,5,6-tetrahydro-6-oxo-1-propylpyridazine-3-carboxamide] | 200 °C |  |
| COc1cc(F)ccc1-c1cc(NC(=O)C2CCC(=O)NC2)ncn1 (centres unmarked) [Example 14, N-(6-(4-fluoro-2-methoxyphenyl)pyrimidin-4-yl)-6-oxopiperidine-3-carboxamide] | 148 °C |  |
| CCOc1ccccc1-c1cc(NC(=O)C2CCC(=O)NC2)ncn1 (centres unmarked) [Example 15, N-(6-(2-ethoxyphenyl)pyrimidin-4-yl)-6-oxopiperidine-3-carboxamide] | 117 °C |  |
| CCOc1ccc(F)cc1-c1cc(NC(=O)C2CCC(=O)NC2)ncn1 (centres unmarked) [Example 16, N-(6-(2-ethoxy-5-fluorophenyl)pyrimidin-4-yl)-6-oxopiperidine-3-carboxamide] | 208 °C |  |
| COc1ccc(F)cc1-c1cc(NC(=O)C2CCC(=O)NC2)ncn1 (centres unmarked) [Example 17, N-(6-(5-fluoro-2-methoxyphenyl)pyrimidin-4-yl)-6-oxopiperidine-3-carboxamide] | 245 °C |  |
| COc1ccc(F)cc1-c1cc(NC(=O)C2CNC(=O)C2)ncn1 (centres unmarked) [Example 18, N-(6-(5-fluoro-2-methoxyphenyl)pyrimidin-4-yl)-5-oxopyrrolidine-3-carboxamide] | 222 °C |  |
| COc1ccc(F)cc1-c1cc(NC(=O)C2CC(=O)NC(=O)C2)ncn1 [Example 19, N-(6-(5-fluoro-2-methoxyphenyl)pyrimidin-4-yl)-2,6-dioxopiperidine-4-carboxamide] | 160 °C |  |
| CCOc1cc(F)ccc1-c1cc(NC(=O)C2CCC(=O)NC2)ncn1 (centres unmarked) [Example 24, N-(6-(2-ethoxy-4-fluorophenyl)pyrimidin-4-yl)-6-oxopiperidine-3-carboxamide] | 222 °C |  |
| CC(C)Oc1cc(F)ccc1-c1cc(NC(=O)C2CCC(=O)NC2)ncn1 (centres unmarked) [Example 25, N-(6-(4-fluoro-2-isopropoxyphenyl)pyrimidin-4-yl)-6-oxopiperidine-3-carboxamide] | 105 °C |  |
| CC(C)Oc1ccc(F)cc1-c1cc(NC(=O)C2CCC(=O)NC2)ncn1 (centres unmarked) [Example 26, N-(6-(5-fluoro-2-isopropoxyphenyl)pyrimidin-4-yl)-6-oxopiperidine-3-carboxamide] | 236 °C |  |
| COc1ccc(F)cc1-c1cc(NC(=O)C2CCOCC2)ncn1 [Example 39, N-(6-(5-fluoro-2-methoxyphenyl)pyrimidin-4-yl)-tetrahydro-2H-pyran-4-carboxamide] | 155 °C |  |
| COc1ccc(F)cc1-c1cc(NC(=O)C2CCNC(=O)C2)ncn1 (centres unmarked) [Example 40, N-(6-(5-fluoro-2-methoxyphenyl)pyrimidin-4-yl)-2-oxopiperidine-4-carboxamide] | 225 °C |  |
| COc1ccc(F)cc1-c1cc(NC(=O)C2CCCNC2=O)ncn1 (centres unmarked) [Example 41, N-(6-(5-fluoro-2-methoxyphenyl)pyrimidin-4-yl)-2-oxopiperidine-3-carboxamide] | 180 °C |  |
| COc1ccc(F)cc1-c1cc(NC(=O)[C@H]2CCCC[C@H]2N)ncn1.Cl [Example 46, (1S,2R)-2-amino-N-(6-(5-fluoro-2-methoxyphenyl)pyrimidin-4-yl)cyclohexanecarboxamide*HCl] | 272 °C |  |
| COc1ccc(F)cc1-c1cc(NC(=O)c2cc(C)on2)ncn1 [Example 55, N-(6-(5-fluoro-2-methoxyphenyl)pyrimidin-4-yl)-5-methylisoxazole-3-carboxamide] | 170 °C |  |
| CCc1ccc(C(=O)Nc2cc(-c3cc(F)ccc3OC)ncn2)nc1 [Example 56, 5-ethyl-N-(6-(5-fluoro-2-methoxyphenyl)pyrimidin-4-yl)pyridine-2-carboxamide] | 176 °C |  |
| CCc1cc(C(=O)Nc2cc(-c3cc(F)ccc3OC)ncn2)no1 [Example 58, 5-ethyl-N-(6-(5-fluoro-2-methoxyphenyl)pyrimidin-4-yl)isoxazole-3-carboxamide] | 175 °C |  |
| COc1ccc(F)cc1-c1cc(NC(=O)c2cnn3cc(C)cnc23)ncn1 [Example 59, N-(6-(5-fluoro-2-methoxyphenyl)pyrimidin-4-yl)-6-methylpyrazolo[1,5-a]pyrimidine-3-carboxamide] | 265 °C |  |
| COc1ccc(F)cc1-c1cc(NC(=O)c2cc(=O)[nH]c3ccccc23)ncn1 [Example 60, N-(6-(5-fluoro-2-methoxyphenyl)pyrimidin-4-yl)-1,2-dihydro-2-oxoquinoline-4-carboxamide] | 276 °C |  |
| COc1ccc(F)cc1-c1cc(NC(=O)C(=O)c2ccccc2)ncn1 [Example 61, N-(6-(5-fluoro-2-methoxyphenyl)pyrimidin-4-yl)-2-oxo-2-phenylacetamide] | 146 °C |  |
| COc1ccc(F)cc1-c1cc(NC(=O)Cc2cc(F)c(F)cc2F)ncn1 [Example 62, N-(6-(5-fluoro-2-methoxyphenyl)pyrimidin-4-yl)-2-(2,4,5-trifluorophenyl)acetamide] | 208 °C |  |
